Experimental data from US20220289657A1, “COMPOSITION FOR PREVENTING OR TREATING BACTERIAL INFECTIOUS DISEASE COMPRISING 4-GINGEROL DERIVATIVE COMPOUND AS ACTIVE INGREDIENT” (KOREA UNIVERSITY RESEARCH AND BUSINESS FOUNDATION, SEJONG …, priority 2019, published 2022).
Like-named read-outs stand apart in the source and are kept apart here. Marks after values point to notes of the source that are not given here.

What was measured:
Pseudomonas aeruginosa [1] = test: Bacterial growth under static condition (OD 595 nm of suspended culture); type: cell-based; conditions: for activity at 10 µM / activity at 100 µM: Pseudomonas aeruginosa, 24 h, Table 3; for activity at 10 µM: read-out: Relative biological activity (%) Bacterial growth 10; for activity at 100 µM: read-out: Relative biological activity (%) Bacterial growth 100; for Relative biological activity (%) Bacterial growth: Table 4, concentration not given
Procedure: (§1) Pseudomonas aeruginosa (P. aeruginosa) (OD 595 nm=1.0) was cultured overnight, and diluted in an AB medium (1:20; 300 mM NaCl, 50 mM MgSO4, 0.2% vitamin-free casamino acids, 10 mM potassium phosphate, 1 mM L-arginine, and 1% glucose, pH 7.5) together with a positive control or compound (0100 μM) in a borosilicate bottle. The resulting mixture was incubated without shaking at 37° C. for 24 hours, and to measure growth inhibition activity. OD 595 nm of the suspended culture was measured using a multimode plate reader. Biofilm cells attached to the bottle were washed twice with phosphate-buffered saline (PBS; 137 mM NaCl, 2.7 mM KCl, 10 mM Na2HPO4, and 2 mM KH2PO4, pH 7.2). Afterward, the remaining biofilm cells were stained with 0.1% crystal violet for 10 minutes, and to remove the unbound crystal violet, washed with deionized water. The crystal violet […] to the biofilm cells was eluted with 100% ethanol, and the OD of the eluted ethanol sample was measured at 545 nm using a multimode plate reader.

Pseudomonas aeruginosa [2] = test: Static biofilm formation assay (crystal violet); type: cell-based; conditions: for activity at 10 µM / activity at 100 µM: Pseudomonas aeruginosa, 24 h, Table 3; for activity at 10 µM / activity at 100 µM / biofilm formation compared with a control (in words): static; for activity at 10 µM: read-out: Relative biological activity (%) Biofilm formation 10; for activity at 100 µM: read-out: Relative biological activity (%) Biofilm formation 100; for Relative biological activity (%) Biofilm formation: Table 4, concentration not given; for biofilm formation compared with a control (in words): 100 μM
Procedure: as §1

P. aeruginosa = test: Rhamnolipid production assay; type: cell-based, Pseudomonas aeruginosa; conditions: for activity at 10 µM / activity at 100 µM: Pseudomonas aeruginosa, 24 h, Table 3; for activity at 10 µM: read-out: Relative biological activity (%) Rhamnolipid production 10; for activity at 100 µM: read-out: Relative biological activity (%) Rhamnolipid production 100; for Relative biological activity (%) Rhamnolipid production: Table 4, concentration not given
Procedure: P. aeruginosa (OD 595 nm=1.0) cultured overnight was inoculated in an AB medium (1:100) with a positive control or compound (0100 μM), and incubated using a shaking culture for 24 hours at 37° C. The cell culture was centrifuged for 5 minutes at 4° C. and 12,000 g. Rhamnolipids were extracted twice by mixing 200 μL of a supernatant and 400 μL of 100% diethyl ether (JUNSEI, Tokyo, Japan). The supernatant was transferred to a new tube and evaporated. A dried sample was eluted with 20 μL of deionized water, and reacted with 180 μL of an Orcinal solution (0.19% Orcinal (Sigma-Aldrich) in 53% H2SO4). The reaction mixture was heated for 30 minutes at 80° C., and cooled for 15 minutes at room temperature. The amount of rhamnolipids was measured at OD 421 nm, and normalized in the cell culture solution at OD 595 nm using a multimode plate reader.

RhlR = biological target: T1, RhlR (Pseudomonas aeruginosa, UniProt P54292); test: cell-based; conditions: for Relative RhIR Activity (%) Agonism 100 / Relative RhIR Activity (%) Agonism 1000: Table 3; for Relative RhIR Activity (%) Agonism 1000: 1000 (μM); for remaining activity at 10 µM: read-out: Relative RhIR Activity (%) Antagonism 10, Table 3; for activity at 100 µM: read-out: Relative RhlR activity Agonism, Table 2; for Relative RhIR activity (%) Agonism / Relative RhIR activity (%) Antagonism: Table 4, concentration not given
T1 construct: expressed in transfected cells; host or cells: E. coli sdiA variant co-transformed with pJN105R and pSC11 (RhlA::lacZ)
Procedure: Escherichia coli (E. coli) DH5a includes LuxR homolog SdiA detecting endogenous AHL synthesized by other microbial species, particularly, BHL.
For RhlR reporter strain analysis, the present invention used pJN105R (RhlR expression plasmid), anspSC11 (RhlA::lacZ fusion plasmid) and an sdiA variant co-transformed with the two plasmids. 1% of an overnight-cultured reporter strain (OD 595 nm=1.0) supplemented with 10 μg/mL gentamicin and 50 μg/mL ampicillin was cultured in a Luria-Bertani (LB) medium (Difco, Detroit, Mich., USA) with a positive control or a compound (0-1000 μM) and BHL (0-10 μM) (Sigma-Aldrich) at 37° C. for 2 hours. 0.4% arabinose (Sigma-Aldrich) was reacted with the resulting product at 37° C. for 1.5 hours. β-galactosidase activity was evaluated using a Tropix plus kit (Applied Biosystems, CA, USA), and OD 595 nm and luminescence were measured using a VICTOR x5 multimode plate reader (PerkinElmer, Waltham, Mass., USA). Relative RhlR activity was quantified by measuring luminescence at OD 595 nm. In addition, for LasR reporter strain analysis, the present invention used pJN105L (LasR expression plasmid) and pSC11 (lasI::lacZ fusion plasmid), E. coli DH5a co-transformed with the two plasmids, and OdDHL (Sigma-Aldrich).

[3] = read-out: Relative RhIR Activity (%) Antagonism 100, Table 3, 100 (μM)
[4] = footnotes not given, matches the 100 column of Table 3
[5] = read-out: Relative RhlR activity Antagonism, Table 2, footnotes not given, 100 μM per Table 3, lower = stronger antagonism

T1 sequence (P54292 whole entry): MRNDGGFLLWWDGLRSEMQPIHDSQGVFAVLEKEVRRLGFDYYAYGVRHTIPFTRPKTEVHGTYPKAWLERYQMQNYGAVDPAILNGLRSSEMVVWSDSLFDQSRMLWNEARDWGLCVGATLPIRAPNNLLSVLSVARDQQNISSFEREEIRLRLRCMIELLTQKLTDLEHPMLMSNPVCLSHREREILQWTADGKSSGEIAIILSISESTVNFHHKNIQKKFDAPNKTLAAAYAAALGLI

SMILES	activity at 10 µM (Pseudomonas aeruginosa [1])	activity at 100 µM (Pseudomonas aeruginosa [1])	activity at 10 µM (Pseudomonas aeruginosa [2])	activity at 100 µM (Pseudomonas aeruginosa [2])	activity at 10 µM (P. aeruginosa)	activity at 100 µM (P. aeruginosa)	Relative RhIR Activity (%) Agonism 100 (RhlR; 100 (μM))	Relative RhIR Activity (%) Agonism 1000 (RhlR)	remaining activity at 10 µM (RhlR)	remaining activity at 100 µM (RhlR; [3])	activity at 100 µM (RhlR; [4])	remaining activity at 100 µM (RhlR; [5])	Relative biological activity (%) Bacterial growth (Pseudomonas aeruginosa [1])	Relative biological activity (%) Biofilm formation (Pseudomonas aeruginosa [2])	Relative biological activity (%) Rhamnolipid production (P. aeruginosa)	Relative RhIR activity (%) Agonism (RhlR)	Relative RhIR activity (%) Antagonism (RhlR)	biofilm formation compared with a control (in words) (Pseudomonas aeruginosa [2])	also measured
CCC[C@@H](O)C#Cc1ccc(F)c(F)c1 [Compound 33b, (R)-1-(3,4-Difluorophenyl)hex-1-yn-3-ol]	98%	102%	74%	60%	60%	48%	3** %	5** %	45%	25%	3%	25%	–	–	–	–	–	–	–
CCCCCCCCC(O)CC(=O)CCc1ccc(O)c(OC)c1 (centres unmarked) [Compound 7, 5-Hydroxy-1-(4-hydroxy-3-methoxyphenyl)tridecan-3-one]	–	–	–	–	–	–	–	–	–	–	2%	41%	89%	79** %	69* %	2** %	41** %	–	–
CCCC(O)CC(=O)/C=C/c1cccc(OC)c1 (centres unmarked) [Compound 11c, (E)-5-Hydroxy-1-(3-methoxyphenyl)oct-1-en-3-one]	96%	95%	88%	73%	91%	83%	2** %	4** %	89%	94%	2%	94%	101%	82* %	95%	2** %	–	–	–
CCCCCCCCCC(O)CC(=O)CCc1ccc(O)c(OC)c1 (centres unmarked) [Compound 8, 5-Hydroxy-1-(4-hydroxy-3-methoxyphenyl)tetradecan-3-one]	–	–	–	–	–	–	–	–	–	–	2%	36%	80** %	80** %	60* %	2** %	36** %	–	–
CCCCC(=O)C#Cc1ccc(F)c(F)c1 [Compound 31, 1-(3,4-Difluorophenyl)hept-1-yn-3-one]	100%	89%	75%	55%	59%	49%	4** %	6** %	29%	16%	4%	16%	–	–	–	–	–	significantly inhibited	effect on cell growth (in words) (Pseudomonas aeruginosa [1]; 100 PM [sic] (100 μM)): slightly inhibited
CCCC(O)CC(=O)/C=C/c1ccc(F)c(F)c1 (centres unmarked) [Compound 11o, (E)-1-(3,4-Difluorophenyl)-5-hydroxyoct-1-en-3-one]	101%	105%	72%	53%	63%	50%	2** %	5** %	60%	20%	2%	20%	–	–	–	–	–	significantly inhibited	Relative RhlR activity Antagonism (RhlR; Table 2, footnotes not given, 100 μM per Table 3, lower = stronger antagonism): 20** %; Relative RhlR activity Agonism (RhlR; Table 2, footnotes not given, matches the 100 column of Table 3): 2** %
